≈ marks a conversion by molar mass, not a printed value.
Tests used:
Assay type in all cases: cell-based
[1] = test system: E. coli ML308; test: susceptibility of tetracycline susceptible strains (MIC), C5 esters; conditions: E. coli ML308, susceptible strain, drug alone
[2] = test system: S. aureus 450; test: as above; conditions: S. aureus 450, susceptible strain, drug alone
[3] = test system: E. faecalis ATCC 9790; test: as above; conditions: E. faecalis ATCC 9790, susceptible strain, drug alone
[4] = test system: E. coli DI-299 (Tet A); test: MIC/MLC chart, analog with and without doxycycline; set-up: key to growth/killing, Analog + Doxy / growth/killing, Doxy Control / growth/killing, Analog Control / growth in MIC/MLC chart: +=growth; 0=no growth (MIC); ↓=killing; ? =99.9% killing (MLC); □=no growth, but no microbiologic testing;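 note: bacterial growth inhibition and killing in broth, each agent tested alone or combined with doxycycline across two-fold serial dilutions, overnight incubation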
[5] = test system: S. aureus 4250 (Tet K); test: MIC/MLC chart, analog with and without doxycycline
[6] = test system: E. faecalis 158 (Tet L); test: MIC/MLC chart, analog with and without doxycycline
[7] = test system: E. faecalis 211 (Tet M); test: MIC/MLC chart, analog with and without doxycycline

C=C1c2cccc(O)c2C(=O)C2=C(O)C3(O)C(=O)C(C(N)=O)=C(O)C(N(C)C)C3C(OC(=O)CC)C12 (stereo not drawn) [Cmpd 2]
MIC [1]: 10 µg/mL (≈ 20.1 µM) | MIC [2]: 1.3 µg/mL (≈ 2.61 µM) | MIC [3]: .8 µg/mL (≈ 1.6 µM) | growth/killing, Analog + Doxy ([4]; analog 1.56 + Doxy 1.55 μg/ml): + | growth/killing, Analog + Doxy ([4]; analog 1.56 + Doxy 3.1 μg/ml): + | growth/killing, Analog + Doxy ([4]; analog 1.56 + Doxy 6.2 μg/ml): + | growth/killing, Analog + Doxy ([4]; analog 1.56 + Doxy 12.3 μg/ml): + | growth/killing, Analog + Doxy ([4]; analog 3.12 + Doxy 1.53 μg/ml): + | growth/killing, Analog + Doxy ([4]; analog 3.12 + Doxy 3.05 μg/ml): + | growth/killing, Analog + Doxy ([4]; analog 3.12 + Doxy 6.1 μg/ml): + | growth/killing, Analog + Doxy ([4]; analog 6.25 + Doxy 3.0 μg/ml): + | growth/killing, Analog + Doxy ([4]; analog 6.25 + Doxy 5.9 μg/ml): + | growth/killing, Analog + Doxy ([4]; analog 12.5 + Doxy 2.8 μg/ml): + | growth/killing, Analog + Doxy ([4]; analog 12.5 + Doxy 5.5 μg/ml): + | growth/killing, Analog + Doxy ([4]; analog .195 + Doxy 1.56 μg/ml): + | growth/killing, Analog + Doxy ([4]; analog .195 + Doxy 3.12 μg/ml): + | growth/killing, Analog + Doxy ([4]; analog .195 + Doxy 6.25 μg/ml): + | growth/killing, Analog + Doxy ([4]; analog .195 + Doxy 12.5 μg/ml): + | growth/killing, Analog + Doxy ([4]; analog .39 + Doxy 1.56 μg/ml): + | growth/killing, Analog + Doxy ([4]; analog .39 + Doxy 3.12 μg/ml): + | growth/killing, Analog + Doxy ([4]; analog .39 + Doxy 6.25 μg/ml): + | growth/killing, Analog + Doxy ([4]; analog .39 + Doxy 12.5 μg/ml): + | growth/killing, Analog + Doxy ([4]; analog .78 + Doxy 1.56 μg/ml): + | growth/killing, Analog + Doxy ([4]; analog .78 + Doxy 3.12 μg/ml): + | growth/killing, Analog + Doxy ([4]; analog .78 + Doxy 6.23 μg/ml): + | growth/killing, Analog + Doxy ([4]; analog .78 + Doxy 12.4 μg/ml): + | growth/killing, Analog Control ([4]; analog alone 1.56 μg/ml): + | growth/killing, Analog Control ([4]; analog alone 3.12 μg/ml): + | growth/killing, Analog Control ([4]; analog alone 6.25 μg/ml): + | growth/killing, Analog Control ([4]; analog alone 12.5 μg/ml): + | growth/killing, Analog Control ([4]; analog alone 25.0 μg/ml): + | growth/killing, Analog Control ([4]; analog alone .195 μg/ml): + | growth/killing, Analog Control ([4]; analog alone .39 μg/ml): + | growth/killing, Analog Control ([4]; analog alone .78 μg/ml): + | growth/killing, Analog + Doxy ([5]; analog .195 + Doxy 1.56 μg/ml): + | growth/killing, Analog + Doxy ([5]; analog .195 + Doxy 3.12 μg/ml): + | growth/killing, Analog + Doxy ([5]; analog .195 + Doxy 6.25 μg/ml): + | growth/killing, Analog + Doxy ([5]; analog .39 + Doxy 1.56 μg/ml): + | growth/killing, Analog + Doxy ([5]; analog .39 + Doxy 3.12 μg/ml): + | growth/killing, Analog + Doxy ([5]; analog .39 + Doxy 6.25 μg/ml): + | growth/killing, Analog + Doxy ([5]; analog .78 + Doxy 1.56 μg/ml): + | growth/killing, Analog + Doxy ([5]; analog .78 + Doxy 3.12 μg/ml): + | growth/killing, Analog Control ([5]; analog alone 1.56 μg/ml): + | growth/killing, Analog Control ([5]; analog alone .195 μg/ml): + | growth/killing, Analog Control ([5]; analog alone .39 μg/ml): + | growth/killing, Analog Control ([5]; analog alone .78 μg/ml): + | MIC of analog in combination ([5]; with 1.55 μg/ml doxycycline (Chart 6B)): 1.56 μg/ml | MIC of analog in combination ([5]; with 6.23 μg/ml doxycycline (Chart 6B)): 0.78 μg/ml | growth/killing, Analog + Doxy ([6]; analog .195 + Doxy 1.56 μg/ml): + | growth/killing, Analog + Doxy ([6]; analog .195 + Doxy 3.12 μg/ml): + | growth/killing, Analog + Doxy ([6]; analog .39 + Doxy 1.56 μg/ml): + | growth/killing, Analog Control ([6]; analog alone .195 μg/ml): + | growth/killing, Analog Control ([6]; analog alone .39 μg/ml): + | growth/killing, Analog Control ([6]; analog alone .78 μg/ml): + | growth/killing, Analog + Doxy ([7]; analog 1.56 + Doxy 1.55 μg/ml): + | growth/killing, Analog + Doxy ([7]; analog 1.56 + Doxy 3.1 μg/ml): + | growth/killing, Analog + Doxy ([7]; analog 1.56 + Doxy 6.2 μg/ml): + | growth/killing, Analog + Doxy ([7]; analog 3.12 + Doxy 1.53 μg/ml): + | growth/killing, Analog + Doxy ([7]; analog 3.12 + Doxy 3.05 μg/ml): + | growth/killing, Analog + Doxy ([7]; analog 3.12 + Doxy 6.1 μg/ml): + | growth/killing, Analog + Doxy ([7]; analog .195 + Doxy 1.56 μg/ml): + | growth/killing, Analog + Doxy ([7]; analog .195 + Doxy 3.12 μg/ml): + | growth/killing, Analog + Doxy ([7]; analog .195 + Doxy 6.25 μg/ml): + | growth/killing, Analog + Doxy ([7]; analog .195 + Doxy 12.5 μg/ml): + | growth/killing, Analog + Doxy ([7]; analog .39 + Doxy 1.56 μg/ml): + | growth/killing, Analog + Doxy ([7]; analog .39 + Doxy 3.12 μg/ml): + | growth/killing, Analog + Doxy ([7]; analog .39 + Doxy 6.25 μg/ml): + | growth/killing, Analog + Doxy ([7]; analog .39 + Doxy 12.5 μg/ml): + | growth/killing, Analog + Doxy ([7]; analog .78 + Doxy 1.56 μg/ml): + | growth/killing, Analog + Doxy ([7]; analog .78 + Doxy 3.12 μg/ml): + | growth/killing, Analog + Doxy ([7]; analog .78 + Doxy 6.23 μg/ml): + | growth/killing, Analog + Doxy ([7]; analog .78 + Doxy 12.4 μg/ml): + | growth/killing, Analog Control ([7]; analog alone 1.56 μg/ml): + | growth/killing, Analog Control ([7]; analog alone 3.12 μg/ml): + | growth/killing, Analog Control ([7]; analog alone 6.25 μg/ml): + | growth/killing, Analog Control ([7]; analog alone .195 μg/ml): + | growth/killing, Analog Control ([7]; analog alone .39 μg/ml): + | growth/killing, Analog Control ([7]; analog alone .78 μg/ml): +
